The record followed here is article PMC9851200, “Multiparameter phenotypic screening for endogenous TFEB and TFE3 translocation identifies novel chemical series modulating lysosome function” (Autophagy, 2022).

Like-named read-outs stand apart in the source and are kept apart here.

Holding throughout (settings): PKIS2 primary screening
The subject of series [1] is SH-SY5Y cells.
From the text: The PKIS2 Library was supplied by The Structural Genomics Consortium at the University of North Carolina at Chapel Hill.
Series [2] deals with SH-SY5Y cells. Nature of the series: AK (adenylate kinase) release ToxiLight cytotoxicity assay. Note: reference of the scale not given here.
Series [3] has as its system SH-SY5Y cells. In words: Nuclear count from microscopy images (cellular growth and toxicity). Note: reference of the scale not given here.
In another series the test system is endogenous TFEB. In words: TFEB nuclear translocation, immunocytochemistry high-content imaging. Format: cell-based.
The next series relates to endogenous TFE3. Nature of the series: TFE3 nuclear translocation, immunocytochemistry high-content imaging. Type of series: cell-based.
Throughout, for DQ Intensity: reference of the scale not given here.
Throughout, for DQ Spot: reference of the scale not given here.

Consider `CCn1c(-c2ccoc2)nc2cnccc21` [UNC10225474A], for which, in the series on SH-SY5Y cells [1], the “DQ Intensity” value was 148.88 and the “DQ Spot” value stood at 113.44. The AK in the series with SH-SY5Y cells [2] is listed as 125.64. In the series with SH-SY5Y cells [3], the “Nuclear Count” value is 101.97. In addition, the TFEB % in the series with endogenous TFEB is listed as 2.97%. In the series on endogenous TFE3, this compound showed a TFE3 % of 9.12%.

For the compound `Cl.Cl.Cl.Fc1ccc(-c2ncn(C3CCNCC3)c2-c2ccnc(Nc3ccccc3)n2)cc1` [UNC10225420B], in the series with SH-SY5Y cells [1], the “DQ Intensity” value was 154.30 and the “DQ Spot” value is listed as 110.72. For the same compound, in the series on SH-SY5Y cells [2], the AK stood at 83.09. For the same compound, in the series on SH-SY5Y cells [3], the “Nuclear Count” value is 69.94. Moreover, in the series on endogenous TFEB, the TFEB % was determined as 2.15%. The compound also gave a TFE3 % in the series on endogenous TFE3 of 11.83%.

`O=C(NCCNc1ccnc(Nc2ccc(F)cc2)n1)c1cc2ccccc2s1` [GSK1379874]: in the series on SH-SY5Y cells [1] (DQ Red BSA intensity), the “DQ Intensity” value was found to be 94.35. In addition, in the series with SH-SY5Y cells [1] (DQ Red BSA spot count), the “DQ Spot” value is 110.46. Besides, the AK in the series with SH-SY5Y cells [2] was 71.16. Moreover, the “Nuclear Count” value with SH-SY5Y cells [3] amounted to 89.16. The TFEB % in the series with endogenous TFEB turned out to be 5.88%. Further, the TFE3 % with endogenous TFE3 came out at 18.78%.

With `CCn1c(-c2cccnc2O)nc2cnccc21` [UNC10225114A], in the series with SH-SY5Y cells [1], the “DQ Intensity” value is given as 101.68 and the “DQ Spot” value is 98.93. For the same compound, the AK in the series with SH-SY5Y cells [2] was 77.22. Besides, the “Nuclear Count” value in the series with SH-SY5Y cells [3] came out at 103.96. This compound also gave a TFEB % in the series on endogenous TFEB of 10.78%. In addition, in the series with endogenous TFE3, the TFE3 % was found to be 9.51%.

Regarding `CNc1nccc(-c2ccc3c(N)n[nH]c3c2)n1` [GSK2206003], the “DQ Intensity” value in the series with SH-SY5Y cells [1] (DQ Red BSA intensity) amounted to 68.32. In addition, the “DQ Spot” value in the series with SH-SY5Y cells [1] (DQ Red BSA spot count) turned out to be 96.17. This compound also registered an AK in the series on SH-SY5Y cells [2] of 89.67. In addition, the “Nuclear Count” value in the series on SH-SY5Y cells [3] amounted to 71.44. The compound further showed a TFEB % with endogenous TFEB of 3.51%. For the same compound, the TFE3 % with endogenous TFE3 is given as 14.62%.

`CN1C(=O)C(Nc2ccc(Cl)c(C(=O)O)c2)=C(c2ccc(Cl)cc2)C1=O` [UNC10225406A]: in the series on SH-SY5Y cells [1] (DQ Red BSA intensity), the “DQ Intensity” value is on record as 120.55. The “DQ Spot” value in the series with SH-SY5Y cells [1] (DQ Red BSA spot count) is reported as 105.90. The AK with SH-SY5Y cells [2] is 75.31. Also, the “Nuclear Count” value in the series with SH-SY5Y cells [3] is 91.26. In addition, the TFEB % in the series with endogenous TFEB is given as 3.59%. The compound further gave a TFE3 % in the series with endogenous TFE3 of 10.12%.

On to `COc1cc(Nc2nccc(N3CCC(NC(=O)c4cc5ccccc5s4)C3)n2)cc(OC)c1OC` (stereo not drawn) [GSK1379760], for which, in the series with SH-SY5Y cells [1] (DQ Red BSA intensity), the “DQ Intensity” value came out at 67.71. Also, the “DQ Spot” value in the series with SH-SY5Y cells [1] (DQ Red BSA spot count) was determined as 93.69. In addition, in the series with SH-SY5Y cells [2], the AK is reported as 89.79. Further, the “Nuclear Count” value in the series on SH-SY5Y cells [3] was 107.53. In addition, the TFEB % in the series with endogenous TFEB is listed as 5.00%. In the series on endogenous TFE3, the TFE3 % was determined as 8.33%.

For the compound `Nc1ncnc2c1nc(-c1ccccc1)n2-c1ccccc1` [UNC10225340A], in the series with SH-SY5Y cells [1], the “DQ Intensity” value is 122.27 and the “DQ Spot” value came out at 108.09. This compound also returned an AK in the series with SH-SY5Y cells [2] of 115.76. In the series with SH-SY5Y cells [3], the “Nuclear Count” value is on record as 115.47. Besides, the TFEB % in the series on endogenous TFEB came out at 8.74%. This compound also yielded a TFE3 % in the series with endogenous TFE3 of 8.63%.

Turning to `COC(=O)C(NC(=O)NC1CCN(c2ccnc(Nc3ccc(F)cc3)n2)C1)c1ccccc1` (stereo not drawn) [GSK1379712], the “DQ Intensity” value in the series with SH-SY5Y cells [1] (DQ Red BSA intensity) is listed as 132.02. In addition, the “DQ Spot” value in the series with SH-SY5Y cells [1] (DQ Red BSA spot count) was determined as 102.90. The same compound returned an AK with SH-SY5Y cells [2] of 111.30. Moreover, the “Nuclear Count” value with SH-SY5Y cells [3] worked out at 98.27. In addition, the TFEB % in the series on endogenous TFEB turned out to be 9.98%. In the series with endogenous TFE3, the TFE3 % stood at 6.91%.

For `Cl.c1ccc(-c2n[nH]cc2-c2ccnc(-c3ccc(CN4CCOCC4)cc3)c2)nc1` [UNC10225251A], the “DQ Intensity” value with SH-SY5Y cells [1] (DQ Red BSA intensity) turned out to be 80.00. Besides, the “DQ Spot” value with SH-SY5Y cells [1] (DQ Red BSA spot count) is 92.60. The AK in the series on SH-SY5Y cells [2] came to 76.02. In addition, the “Nuclear Count” value with SH-SY5Y cells [3] amounted to 93.63. This compound yielded a TFEB % in the series on endogenous TFEB of 7.11%. Moreover, in the series on endogenous TFE3, the TFE3 % is recorded as 7.21%.

On to `Cc1ccc(NC(=O)c2ccc(Cl)c(Cl)c2)cc1-c1ccc(C(=O)Nc2ccncc2)cc1` [UNC10225151A], for which, in the series with SH-SY5Y cells [1], the “DQ Intensity” value amounted to 92.58 and the “DQ Spot” value amounted to 82.55. In the series with SH-SY5Y cells [2], this compound returned an AK of 125.83. In addition, the “Nuclear Count” value with SH-SY5Y cells [3] was 117.17. This compound also had a TFEB % in the series with endogenous TFEB of 6.14%. This compound also came in with a TFE3 % with endogenous TFE3 of 10.75%.

Turning to `CCS(=O)(=O)c1ccc(OC)c(Nc2nccc(-c3c(-c4cccc(NC(=O)c5c(F)cccc5F)c4)nn4ncccc34)n2)c1` [UNC10225342A], in the series with SH-SY5Y cells [1], the “DQ Intensity” value is given as 69.43 and the “DQ Spot” value came to 80.86. Moreover, the AK in the series on SH-SY5Y cells [2] was 86.17. For the same compound, the “Nuclear Count” value in the series with SH-SY5Y cells [3] is 104.33. In addition, the TFEB % with endogenous TFEB is reported as 6.81%. In the series on endogenous TFE3, this compound had a TFE3 % of 13.07%.

With `Nc1cccc(-c2ccc3c(N)n[nH]c3c2)n1` [GSK2192730], the “DQ Intensity” value in the series on SH-SY5Y cells [1] (DQ Red BSA intensity) was found to be 80.06. Besides, the “DQ Spot” value in the series on SH-SY5Y cells [1] (DQ Red BSA spot count) is given as 98.33. This compound yielded an AK in the series on SH-SY5Y cells [2] of 126.21. In the series with SH-SY5Y cells [3], the “Nuclear Count” value is given as 95.98. The same compound gave a TFEB % in the series with endogenous TFEB of 5.46%. For the same compound, the TFE3 % in the series with endogenous TFE3 came out at 14.87%.
